Assay results from patent US8138159B2, “Composition for inhibiting function of human Flt3” (Takara Bio Inc., priority 2003, dated 2012).

What was measured:
Type in all cases: cell-based, human
[1] = system: Flt3 mRNA highly expressing cells; assay: cell growth activity, Premix WST1 (Example 2), stated for highly expressing cells together; details: regardless of presence or absence of ITD mutation, read-out: IC50 (50% inhibition concentration) of growth
[2] = system: MV4-11 (ITD mutation) cells; assay: cell growth with siRNA alone or siRNA cocktail, WST-1 (Example 7); details: final concentration 1.2 μM, electroporation, 72 hours, n=6 mean
Procedure: As the composition of the present invention, a cocktail containing the synthesized siRNA1, 2 and 3, or siRNA3 alone, was examined for its growth inhibitory activity on MV4-11 (ITD mutation) cells. The synthesized siRNA1, 2 and 3 used were the same as in item (1) of Example 1 above.
A medium for MV4-11 cells used was the same as in item (2) of above Example 1, and the cells were cultured at 37° C. for 24 hours in an RPMI 1640 medium (manufactured by TAKARA BIO INC.) supplemented with 10% by volume fetal bovine serum (FBS) (referred to hereinafter as the culture medium) in the presence of 5% by volume CO2. Then, transfection of the cells with the synthesized siRNA3 was carried out in the following manner. […]
The cells added in an amount of 100 μl/well on the 96-well plate prepared in item (2) above were cultured at 37° C. in the presence of 5% by volume CO2. Seventy-two hours after the culture was initiated, the growth activity of the cells was determined using Premix WST-1 reagent (manufactured by TAKARA BIO INC.) according to a manufacturer's protocol. Each experiment was carried out with n=6, and the mean was determined. The relative growth ratio (%) as compared with the growth ability of the cells transfected with the control siRNA was determined.

[3] = system: HL60 cells (WT-low expressing); assay: cell growth activity, Premix WST1 (Example 2)
Procedure: (§1) The cells placed in a 96-well plate at a density of 2×10^4 cells/well were cultured in an RPMI medium (containing 10% by volume FBS). The cells were transfected with each of the synthesized (10 nM each) siRNAs, and after 20 hours, the cell growth activity was determined with Premix WST1 reagent (trade name, manufactured by TAKARA BIO INC.). Relative growth ability (%) compared with the growth ability of the control (cells subjected to transfection without adding an siRNA) was determined. Each experiment was carried out with n=3, and the mean was determined.

[4] = system: MV4-11 cells (ITD mutation-highly expressing); assay: cell growth activity, Premix WST1 (Example 2)
Procedure: as §1

[5] = system: EoL1 cells (WT-highly expressing); assay: cell growth activity, Premix WST1 (Example 2)
Procedure: as §1

[6] = siRNA 10 nM, after 20 hours, n=3 mean, control = transfection without siRNA

Substance: siRNA3: siRNA to juxtamembrane region (Flt3/JMD region) (target SEQ ID NO: 7); sense SEQ ID NO: 8, antisense SEQ ID NO: 9 (sense UAUGAAUAUGAUCUCAAAUTT; antisense AUUUGAGAUCAUAUUCAUATT; chemistry not given here)
- IC50 [1]: 10 nM
- relative growth ratio (%) as compared with the cells transfected with the control siRNA (growth inhibition to) [2]: 46.5%
- Ratio of cell-growth activation defining RNA interference effect in HL60 as 1 ([3]; HL60, the reference itself): (1)
- Relative growth ability (%) compared with the control ([3]; HL60, siRNA 10 nM, after 20 hours, n=3 mean, control = transfection without siRNA): 90.3%
- Ratio of cell-growth activation defining RNA interference effect in HL60 as 1 [4]: (0.41)
- Relative growth ability (%) compared with the control [4, 6]: 37.5%
- Ratio of cell-growth activation defining RNA interference effect in HL60 as 1 [5]: (0.50)
- Relative growth ability (%) compared with the control [5, 6]: 45.1%
